No end group written: not given here.
Molecular target: Ca2+/CaM (Homo sapiens, UniProt P0DP23)
Assay type: binding

Kd	KD from titration to 15N-labeled Ca2+/CaM (result in words) (nanodisc free solution, same conditions as the SFWT peptide)	Substance
0.27 µM		HAGKTGSSGPLQ [SFFA]
750 µM		HFGKTGAASDQR [LFRA]
	did not reach saturation	HFGKpTGSSGPLQ [pSFWT]

Reference: PMC6524640 (Biochimica et biophysica acta. Biomembranes, 2019)
